From article PMC5106240 (Drug Design, Development and Therapy, 2016) come the findings set out here.

Common to all, as to assay type: in vivo, Wistar rats
The subject of one test is STR-induced convulsions. The experiment in a line: STR-induced seizure model. The note with it: rats, 10, 20, 30 minutes observation.
The subject of a further test is PTZ-induced convulsions. In words: PTZ-induced seizure model. The note with it: rats.
The subject of another test is MES-induced convulsions. The experiment in a line: MES-induced seizure model. As to conditions: rats, 10 mg/kg IP, vs saline-treated group.
[1] abbreviates: 10 mg/kg IP, 30 minutes before PTZ 60 mg/kg IP, 10, 20, 30 minutes observation.

SMILES strings stand for the structures.

As to `CCCC(CCC)C(=O)O` [VPA, valproic acid], in the test with STR-induced convulsions (300 mg/kg IP), the “Protective effect on STR-induced convulsions (convulsion score)” value is given as “significant protection”. Besides, the “Protective effect on PTZ-induced convulsions (convulsion score)” value with PTZ-induced convulsions (100 mg/kg IP, 10, 20, 30 minutes observation) was “significant protection”.
`Clc1ccc(CCCOCCCN2CCCCC2)cc1` [PIT, pitolisant]: the “Protective effect on MES-induced convulsions (duration of THLE)” value (from here on “Protective effect … (duration of THLE)”) with MES-induced convulsions was “moderately protected”. Also, in the test on STR-induced convulsions (10 mg/kg IP, 30 minutes before STR 3.5 mg/kg IP), the “Protective effect on STR-induced convulsions (convulsion score)” value is listed as “failed to provide protection”. Also, the “Protective effect on PTZ-induced convulsions (convulsion score)” value in the test with PTZ-induced convulsions (setting [1]) was “failed to provide protection”.
As to `O=C1NC(=O)C(c2ccccc2)(c2ccccc2)N1` [PHT, Phenytoin], the “Protective effect … (duration of THLE)” value with MES-induced convulsions is “fully”.
On to `C[C@@H](N)Cc1cnc[nH]1` [RAMH, R-(α)-methyl-histamine], for which, in the test with MES-induced convulsions, the “Protective effect … (duration of THLE)” value was “did not affect MES-induced seizures”. Further, the “Protective effect on PTZ-induced convulsions (convulsion score)” value in the test with PTZ-induced convulsions (setting [1]) is “did not affect convulsion score”.
As for `O=C1NC(=O)C(c2ccccc2)(c2ccc(OCCCN3CCCCC3)cc2)N1` (centres unmarked) [Compound 6, 5-Phenyl-5-(4-(3-(piperidin-1-yl)propoxy)phenyl) imidazolidine-2,4-dione], the “Protective effect … (duration of THLE)” value with MES-induced convulsions is “failed to provide significant protection”. In addition, the “Protective effect on PTZ-induced convulsions (convulsion score)” value with PTZ-induced convulsions (setting [1]) was “full protection”; with PTZ-induced convulsions (10 and 15 mg/kg IP, 10, 20, 30 minutes) it was “significant and full protective effect”.
